Assay results published in PMC6838110 (Nature Communications, 2019).

Key:
[1] = test system: CTG-703 ovarian PDX; assay: PDX efficacy study; format: in vivo, mice; settings: olaparib single agent
Protocol: (§1) Immunocompromised SCID (C.B-17/IcrHan®Hsd-Prkdc^scid) or Hsd:Athymic Nude-Foxn1^nu female mice (Envigo) were used for tumour implantation. […] When dosed twice daily, the time between the morning and evening doses was 8 h. Targeted irradiation of 2 Gy was delivered over 2 min daily over the first 5 days of treatment. Liposomal doxorubicin (Doxoves) was diluted in physiological saline and intravenously dosed at 2.5 or 5 mg kg^−1 once per week. Olaparib was formulated in 10% DMSO/30% Kleptose and orally dosed at 100 mg kg^−1 once daily. […] Statistical significance was evaluated using a one-tailed t-test. All in vivo studies complied with all relevant ethical regulations for animal testing and research, followed AstraZeneca’s global bioethics policy and received ethical approval from the AstraZeneca ethical committee. HBCx-17 PDX study was carried out at XenTech, France in accordance with French regulatory legislation concerning the protection of laboratory animals. CTG-703, CTG-0828 and CTG-0149 PDX studies were carried out at Champions Oncology, Inc., USA in accordance to the guidelines of the Institutional Animal Care and Use Committee (IACUC) of Champions Oncology and the USA regulatory legislation. CDX and OV2022 PDX studies were conducted in the UK in accordance with UK Home Office legislation, the Animal Scientific Procedures Act 1986 and the Home Office project licences 70/8839, 70/8894 and P0EC1FFDF. […]
(§2) SCID mice were surgically implanted subcutaneously with tumour fragments from donor mice. Tumours were measured (length x width) by bilateral Vernier calliper measurements and tumour volume calculated using Mousetrap software. Mice were randomized into […]
(§3) treatment groups when mean tumour volume reached ~0.2 cm 3. AZD7648 was formulated in 0.5% hydroxypropyl methylcellulose (HPMC)/0.1% Tween80 (HPMC/T) and orally dosed (4–100 mg/kg). When dosed twice daily (bid), the time between the morning and evening doses was 8 hours. Targeted irradiation of 2 Gy was delivered over 2 minutes daily over the first 5 days of treatment. Liposomal doxorubicin (Doxoves) was diluted in physiological saline and intravenously dosed at 2.5 or 5 mg/kg once per week. Olaparib was formulated in 10% DMSO/30% Kleptose and orally dosed at 100 mg/kg once daily.
(§4) HPMC/T. Tumour growth inhibition from start of treatment was assessed by co mparison of the mean change in tumour volume for the control and treated groups, using the Mousetrap application and represented as tumour growth inhibition (TGI). Statistical significance was evaluated using a one-tailed t-test. HBCx-17 PDX study was carried out at XenTech, France in accordance with French regulatory legislation concerning the protection of laboratory animals. CTG-703, CTG-0828 and CTG-0149 PDX studies were carried out at Champions Oncology, Inc., USA in accordance to the guidelines of the Institutional Animal Care and Use Committee (IACUC) of Champions Oncology and the USA regulatory legislation. CDX and OV2022 PDX studies were conducted in the UK in accordance with UK Home Office legislation, the Animal Scientific Procedures Act 1986, and AstraZeneca’s global bioethics policy. Experimental details are outlined in Home […]
(§5) Blood samples were taken via venipuncture of the tail vein. Whole blood was mixed 1: 5 with PBS and centrifuged at 1500g for 3 minutes at 4°C, and the plasma was extracted […]
(§6) was prepared using an appropriate dilution factor and compared against an 11-point standard calibration curve (1–10,000 nM) prepared in DMSO and spiked into bl ank plasma. Acetonitrile (100 µL) was added with the internal standard, followed by centrifugation at 3000 rpm for 10 minutes. Supernatant (50 µL) was then diluted in 300 µL water and analysed with ultra-performance liquid chromatography–tandem mass […]
(§7) Xenograft sample preparation
(§8) Animals were euthanized and tumour samples snap frozen in liquid nitrogen or fixed in formalin and paraffin embedded for subsequent analysis. Tumour pieces were lysed in […]

[2] = test system: OV2022 ovarian PDX; assay: PDX efficacy study; format: in vivo, mice; settings: olaparib single agent
Protocol: as §1, §2, §3, §4, §5, §6, §7, §8

[3] = test system: CTG-0828 NSCLC PDX; assay: PDX efficacy study; format: in vivo, mice; settings: olaparib single agent
Protocol: as §1, §2, §3, §4, §5, §6, §7, §8

[4] = test system: CTG-0149 H&N PDX; assay: PDX efficacy study; format: in vivo, mice; settings: olaparib single agent
Protocol: as §1, §2, §3, §4, §5, §6, §7, §8

[5] = test system: HBCx-17 TNBC PDX; assay: PDX efficacy study; format: in vivo, mice; settings: olaparib 100 mg kg−1 qd single agent
Protocol: as §1, §2
treatment groups when mean tumour volume reached ~0.2 cm 3.

[6] = test system: FaDu and A549 ATM KO cells; assay: Colony formation assay, olaparib, ATM KO versus WT isogenic pairs; format: cell-based, human; settings: olaparib single agent
Protocol: (§9) Graphs represent percentage viable cells ± SD following 7 days' treatment relative to DMSO vehicle-treated controls from one representative experiment of at least three independent experiments. […] Mean pGI50 (-log [GI50]) ± SEM, geometric mean GI50, number of experimental repeats (n) and 95% confidence interval are described. C) Colony formation assay was performed on FaDu and A549 ATM KO and WT cells treated with increasing concentrations of olaparib. Graphs represent percentage surviving fraction of colonies ± SD following 10- 14 days' treatment relative to DMSO vehicle-treated control from one representative experiment of three independent experiments. […] Optimized image algorithms were used to evaluate phenotypic response s using nuclear staining with Hoechst (cell cycle, micronuclei, nuclear fragmentation ), as well as to quantify the response of DNA damage response markers (foci numbers and total signal […] SDS-PAGE and Western blotting of samples Protein lysates were generated by scraping cells in radioimmunoprecipitation assay […] and protease and phosphatase inhibitor tablets (Roche) following compound treatments at indicated time points. Protein concentration was determined using the BCA protein assay kit (ThermoFisher). Proteins were separated by SDS -PAGE on NuPAGE® 4-12% […] membranes using the iBlot ® dry blotting system (ThermoFisher). […]

[7] = test system: FaDu ATM KO cells; assay: Clonogenic survival (colony formation assay); format: cell-based; settings: Homo sapiens
Protocol: as §9

[8] = test system: FaDu ATM KO xenografts; assay: Xenograft efficacy study with olaparib; format: in vivo, mice; settings: continuous olaparib 100 mg kg−1 qd single agent
Protocol: Immunocompromised SCID (C.B-17/IcrHan®Hsd-Prkdc^scid) or Hsd:Athymic Nude-Foxn1^nu female mice (Envigo) were used for tumour implantation. […] When dosed twice daily, the time between the morning and evening doses was 8 h. Targeted irradiation of 2 Gy was delivered over 2 min daily over the first 5 days of treatment. Liposomal doxorubicin (Doxoves) was diluted in physiological saline and intravenously dosed at 2.5 or 5 mg kg^−1 once per week. Olaparib was formulated in 10% DMSO/30% Kleptose and orally dosed at 100 mg kg^−1 once daily. […] Statistical significance was evaluated using a one-tailed t-test. […]
Tumours were measured (length x width) by bilateral Vernier calliper measurements and tumour volume calculated using Mousetrap software. […]
HPMC/T. Tumour growth inhibition from start of treatment was assessed by co mparison of the mean change in tumour volume for the control and treated groups, using the Mousetrap application and represented as tumour growth inhibition (TGI). Statistical significance was evaluated using a one-tailed t-test. […]
as §6, with “Acetonitrile (100 µL) was added with the internal standard, followed by centrifugation at 3000 rpm for 10 minutes.” left out

With `O=C(c1cc(Cc2n[nH]c(=O)c3ccccc23)ccc1F)N1CCN(C(=O)C2CC2)CC1` [olaparib] the TGI [1] was 100%, the TGI [2] was 65% and the “sensitivity of the model to olaparib” value [3] was “insensitive”. The “sensitivity of the model to olaparib” value [4] was “insensitive”, the tumour regression [5] was 42% and the “tumours regressed on day 70 (last day of dosing)” value [5] was “four tumours out of nine”. For the same compound, the “tumours regressed on day 70 (last day of dosing)” value ([5]; listed as Olaparib) was 4/9, the “greater sensitivity of ATM KO cells compared with isogenic WT cells” value [6] was greater than 10 fold and the IC50 [7] was roughly 100 nM. The TGI [8] was 50%.
